Source: patent publication US11285135B2 (AMGEN INC., priority 2016, dated 2022)
pIC50: −log10 of the molar value. Like-named read-outs stand apart in the source and are kept apart here.

Columns and labels:
[1] = system: Phosphorylation of ERK½ in MIA PaCa-2 cells; assay: Phospho-ERK½ MSD Assay in MIA PaCa-2 cells; assay type: cell-based; settings: 4 hours compound treatment, 10 ng/mL EGF for 10 min, read-out: p-ERK IC50 (MIA PaCa-2)
Outline: (§1)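 MIA PaCa-2 or A549 cells (25,000/well, RPMI with 10% FBS) exposed to compound titration for 4 h at 37 °C, then stimulated with 10 ng/mL EGF for 10 min and lysed in RIPA. Phospho-ERK1/2 quantified by MSD whole-cell lysate immunoassay; IC50 from 4-parameter logistic fit.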

[2] = system: Phosphorylation of ERK½ in A549 cells; assay: Phospho-ERK½ MSD Assay in A549 cells; assay type: cell-based; settings: Homo sapiens, A549, A549 cells; 4 hours compound treatment; 10 ng/mL EGF for 10 min; read-out: p-ERK IC50 (A549)
Outline: as §1

[3] = target: GDP-bound protein (aa 1-169), containing both G12C and C118A amino acid substitutions (Homo sapiens, UniProt P01116, C118A/G12C); assay: Coupled Nucleotide Exchange Assay (SOS-mediated nucleotide exchange, AlphaScreen); assay type: biochemical; settings: 2 hours compound pre-incubation
Outline: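 His-tagged GDP-bound […] (aa 1-169, G12C/C118A) pre-incubated 2 h with compound titration in 25 mM HEPES pH 7.4, 10 mM MgCl2, 0.01% Triton X-100.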

[4] = Homo sapiens, MIA PaCa-2, MIA PaCa-2 cells

Chain of GDP-bound protein (aa 1-169), containing both G12C and C118A amino acid substitutions (P01116 1-169 isoform P01116-2 G12C/C118A): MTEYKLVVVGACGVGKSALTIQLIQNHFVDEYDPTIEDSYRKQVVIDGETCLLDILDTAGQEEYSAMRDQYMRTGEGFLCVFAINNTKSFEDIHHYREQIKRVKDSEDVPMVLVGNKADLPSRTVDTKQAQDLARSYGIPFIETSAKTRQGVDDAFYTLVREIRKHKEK

| Structure (SMILES) | pIC50 ([1]; MIA PaCa-2 cells) | pIC50 [2] | Coupled exchange IC50 [3] [µM] | pIC50 [1, 4] |
| --- | --- | --- | --- | --- |
| C=CC(=O)N1CCN(c2snc3c(F)c(-c4cc(O)cc5ccccc45)c(Cl)cc23)CC1 [Example 3-1, 1-(4-(5-Chloro-7-fluoro-6-(3-hydroxynaphthalen-1-yl)benzo[c]isothiazol-3-yl)piperazin-1-yl)prop-2-en-1-one] | 5.49 | < 4.00 | 0.266 | – |
| C=CC(=O)N1CCN(c2snc3c(F)c(-c4c(C)ccc5[nH]ncc45)c(Cl)cc23)CC1 [Example 3-5, 1-(4-(5-chloro-7-fluoro-6-(5-methyl-1H-indazol-4-yl)-2,1-benzothiazol-3-yl)-1-piperazinyl)-2-propen-1-one] | – | 5.43 | 0.693 | 5.28 |
| C=CC(=O)N1CCN(c2snc3c(F)c(-c4c(O)cccc4F)c(Cl)cc23)CC1 [Example 3-6, 1-(4-(5-chloro-7-fluoro-6-(2-fluoro-6-hydroxyphenyl)-2,1-benzothiazol-3-yl)-1-piperazinyl)-2-propen-1-one] | – | < 4.00 | 1.05 | 4.93 |
| C=CC(=O)N1CCN(c2snc3c(F)c(-c4cc(O)ccc4C)c(Cl)cc23)CC1 [Example 3-8, 1-(4-(5-chloro-7-fluoro-6-(5-hydroxy-2-methylphenyl)-2,1-benzothiazol-3-yl)-1-piperazinyl)-2-propen-1-one] | – | < 4.00 | 1.07 | 5.15 |
| C=CC(=O)N1CCN(c2snc3c(F)c(-c4cc(OC)ccc4Cl)c(Cl)cc23)CC1 [Example 3-9, 1-(4-(5-chloro-6-(2-chloro-5-methoxyphenyl)-7-fluoro-2,1-benzothiazol-3-yl)-1-piperazinyl)-2-propen-1-one] | – | < 4.48 | 3.37 | 5.03 |
| C=CC(=O)N1CCN(c2snc3c(F)c(-c4cc(O)c(F)cc4F)c(Cl)cc23)CC1 [Example 3-10, 1-(4-(5-chloro-6-(2,4-difluoro-5-hydroxyphenyl)-7-fluoro-2,1-benzothiazol-3-yl)-1-piperazinyl)-2-propen-1-one] | – | 4.95 | 4.74 | 4.18 |
| C=CC(=O)N1CCN(c2snc3c(F)c(-c4cc(O)ccc4Cl)c(Cl)cc23)CC1 [Example 3-11, 1-(4-(5-chloro-6-(2-chloro-5-hydroxyphenyl)-7-fluoro-2,1-benzothiazol-3-yl)-1-piperazinyl)-2-propen-1-one] | – | 4.95 | 0.457 | 5.51 |
| C=CC(=O)N1CCN(c2snc3c(F)c(-c4cc(N)ccc4C)c(Cl)cc23)CC1 [Example 3-12, 1-(4-(6-(5-amino-2-methylphenyl)-5-chloro-7-fluoro-2,1-benzothiazol-3-yl)-1-piperazinyl)-2-propen-1-one] | – | < 4.00 | 2.56 | 5.12 |
| C=CC(=O)N1CCN(c2snc3c(F)c(-c4cc(N)cc(F)c4F)c(Cl)cc23)CC1 [Example 3-15, 1-(4-(6-(5-amino-2,3-difluorophenyl)-5-chloro-7-fluoro-2,1-benzothiazol-3-yl)-1-piperazinyl)-2-propen-1-one] | – | < 4.00 | 4.03 | 4.70 |
| C=CC(=O)N1CCN(c2snc3c(F)c(-c4cc(O)cc(F)c4F)c(Cl)cc23)CC1 [Example 3-16, 1-(4-(5-chloro-6-(2,3-difluoro-5-hydroxyphenyl)-7-fluoro-2,1-benzothiazol-3-yl)-1-piperazinyl)-2-propen-1-one] | – | < 4.00 | 2.60 | 4.67 |
| C=CC(=O)N1CCN(c2snc3c(F)c(-c4cc(O)c(F)cc4Cl)c(Cl)cc23)CC1 [Example 3-18, 1-(4-(5-chloro-6-(2-chloro-4-fluoro-5-hydroxyphenyl)-7-fluoro-2,1-benzothiazol-3-yl)-1-piperazinyl)-2-propen-1-one] | – | < 4.00 | 2.60 | < 4.00 |
| C=CC(=O)N1CCN(c2snc3c(F)c(-c4cc(N)ccc4Cl)c(Cl)cc23)CC1 [Example 3-19, 1-(4-(6-(5-amino-2-chlorophenyl)-5-chloro-7-fluoro-2,1-benzothiazol-3-yl)-1-piperazinyl)-2-propen-1-one] | – | < 4.48 | 0.954 | 5.69 |
| C=CC(=O)N1CCN(c2snc3c(F)c(-c4cc(N)c(Cl)cc4Cl)c(Cl)cc23)CC1 [Example 3-20, 1-(4-(6-(5-amino-2,4-dichlorophenyl)-5-chloro-7-fluoro-2,1-benzothiazol-3-yl)-1-piperazinyl)-2-propen-l-one] | – | < 4.00 | 2.99 | 5.02 |
| C=CC(=O)N1CCN(c2snc3c(F)c(-c4cc(O)cc(Cl)c4Cl)c(Cl)cc23)CC1 [Example 3-22, 1-(4-(5-chloro-6-(2,3-dichloro-5-hydroxyphenyl)-7-fluoro-2,1-benzothiazol-3-yl)-1-piperazinyl)-2-propen-1-one] | – | < 4.48 | 0.249 | 5.95 |
| C=CC(=O)N1CCN(c2snc3c(F)c(-c4cccc5ccccc45)c(Cl)cc23)CC1 [Example 3-23, 1-(4-(5-chloro-7-fluoro-6-(naphthalen-1-yl)benzo[c]isothiazol-3-yl)piperazin-1-yl)prop-2-en-1-one] | – | < 4.00 | 4.65 | 4.87 |
| C=CC(=O)N1CCN(c2snc3c(F)c(-c4cccc5cccnc45)c(Cl)cc23)CC1 [Example 3-24, 1-(4-(5-chloro-7-fluoro-6-(quinolin-8-yl)benzo[c]isothiazol-3-yl)piperazin-1-yl)prop-2-en-1-one] | – | < 4.00 | 9.07 | 4.63 |
| C=CC(=O)N1CC2(C1)CN(c1snc3c(F)c(-c4cc(O)cc5ccccc45)c(Cl)cc13)C2 [Example 4-1, 1-(6-(5-Chloro-7-fluoro-6-(3-hydroxynaphthalen-1-yl)benzo[c]isothiazol-3-yl)-2,6-diazaspiro[3.3]heptan-2-yl)prop-2-en-1-one] | – | < 4.00 | 0.529 | 5.63 |
| C=CC(=O)NC1CN(c2snc3c(F)c(-c4cc(O)cc5ccccc45)c(Cl)cc23)C1 [Example 4-6, N-(1-(5-chloro-7-fluoro-6-(3-hydroxy-1-naphthalenyl)-2,1-benzothiazol-3-yl)-3-azetidinyl)-2-propenamide] | – | < 4.00 | 0.630 | 4.99 |
| C=CC(=O)N(C)C1CN(c2snc3c(F)c(-c4cc(O)cc5ccccc45)c(Cl)cc23)C1 [Example 5-1, N-(1-(5-Chloro-7-fluoro-6-(3-hydroxy-1-naphthalenyl)-2,1-benzothiazol-3-yl)-3-azetidinyl)-N-methyl-2-propenamide] | – | < 4.00 | 0.875 | 5.54 |
| C=CC(=O)N1CCN(c2snc3c(F)c(-c4cc(O)cc5ccccc45)c(Cl)cc23)C[C@@H]1C [Example 5-4, 1-((2S)-4-(5-chloro-7-fluoro-6-(3-hydroxy-1-naphthalenyl)-2,1-benzothiazol-3-yl)-2-methyl-1-piperazinyl)-2-propen-1-one] | – | < 4.00 | 0.610 | 5.49 |
| C=CC(=O)N1CC[C@@H]2[C@H]1CN2c1snc2c(F)c(-c3cc(O)cc4ccccc34)c(Cl)cc12 [Example 5-5, 1-((1R,5R)-6-(5-chloro-7-fluoro-6-(3-hydroxy-1-naphthalenyl)-2,1-benzothiazol-3-yl)-2,6-diazabicyclo[3.2.0]heptan-2-yl)-2-propen-1-one] | – | < 4.00 | 0.341 | 5.60 |
| C=CC(=O)N1CC[C@H]2[C@@H]1CN2c1snc2c(F)c(-c3cc(O)cc4ccccc34)c(Cl)cc12 [Example 5-6, 1-((1S,5S)-6-(5-chloro-7-fluoro-6-(3-hydroxy-1-naphthalenyl)-2,1-benzothiazol-3-yl)-2,6-diazabicyclo[3.2.0]heptan-2-yl)-2-propen-1-one] | – | < 4.00 | 0.883 | 5.23 |
| C=CC(=O)N1CCN(c2snc3c(F)c(-c4cc(O)cc5ccccc45)c(Cl)cc23)C[C@H]1C [Example 5-7, 1-((2R)-4-(5-chloro-7-fluoro-6-(3-hydroxy-1-naphthalenyl)-2,1-benzothiazol-3-yl)-2-methyl-1-piperazinyl)-2-propen-1-one] | – | < 4.00 | 0.815 | 5.42 |
| C=CC(=O)N1CC(N(C)c2snc3c(F)c(-c4cc(O)cc5ccccc45)c(Cl)cc23)C1 [Example 5-9, 1-(3-((5-Chloro-7-fluoro-6-(3-hydroxynaphthalen-1-yl)benzo[c]isothiazol-3-yl)(methyl)amino)azetidin-1-yl)prop-2-en-1-one] | – | < 4.00 | 0.139 | 6.09 |
| C=CC(=O)N1CCN(c2snc3c(F)c(-c4nc(N)ccc4Cl)c(Cl)cc23)CC1 [Example 6-1, 1-(4-(6-(6-Amino-3-chloro-2-pyridinyl)-5-chloro-7-fluoro-2,1-benzothiazol-3-yl)-1-piperazinyl)-2-propen-1-one] | – | 5.43 | 0.537 | 5.89 |
